Broadly, the GI50 is the concentration that inhibits growth by half. Usually TGI stands for the concentration giving total growth inhibition. Low values mean greater sensitivity of the cells, high ones lower sensitivity of the cells.

Assay in all cases: DTP human tumour cell line panel, 48 h
Assay [1] relates to SR leukemia.
Assay [2] has as its system HCC-2998 colon.
Assay [3] deals with SK-MEL-5 melanoma.
The subject of assay [4] is SW-620 colon.
Assay [5] concerns K-562 leukemia.
Assay [6] has as its system SF-539 CNS.
Assay [7] has as its system UACC-257 melanoma.
The subject of assay [8] is CCRF-CEM leukemia.

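All cell lines were grown in 96-well plates and treated with compound for 48 hours. At the GI50, growth is halved. TGI is the concentration that stops growth completely.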

Consider `O=c1c2c(c3ccccc3n1-c1ccccc1)NC(=S)NC2c1ccc(Cl)cc1` (centres undefined), for which the GI50 in assay [1] is 4.76 µM; in assay [2] it was 2.2 µM; in assay [3], 2.42 µM; in assay [4], 6.97 µM; in assay [5] it was 4.04 µM; in assay [6] it was 2.37 µM. The GI50 in assay [7] is 5.9 µM; in assay [8], 3.79 µM. Moreover, the TGI in assay [1] was above 100 µM; in assay [2], 16.3 µM; in assay [3], 10.5 µM; in assay [4] it was 49.9 µM; in assay [5], above 100 µM; in assay [6], 42.6 µM. Also, the total growth inhibition concentration (TGI) in assay [7] and in assay [8] was above 100 µM throughout.

As for `Cc1cccc2nc3cccc(C(=O)NCCNCCNCCNC(=O)c4cccc5nc6cccc(C)c6nc45)c3nc12`, the concentration for 50% growth inhibition (GI50) is below 0.01 µM in assay [1]; 0.0416 µM in assay [2]; below 0.0131 µM in assay [3]; below 0.01 µM in assay [4]; below 0.01 µM in assay [5]; below 0.0254 µM in assay [6]. Also, the concentration for 50% growth inhibition (GI50) was 0.0557 µM in assay [7] and 0.0859 µM in assay [8]. Further, the total growth inhibition concentration (TGI) in assay [1] came out at 1.22 µM; in assay [2], 0.837 µM; in assay [3], 0.851 µM; in assay [4] it was 3.5 µM; in assay [5] it was 9.37 µM; in assay [6], 4.06 µM. Besides, the total growth inhibition concentration (TGI) worked out at 1.76 µM in assay [7] and 2.86 µM in assay [8].

Turning to `CCCCCCC/C=C/[C@H]1O[C@]2(O)C(=O)C=C3C[C@@H](O[C@@H]4O[C@H](CO)[C@@H](O)C(O)[C@@H]4O)C[C@@H]3[C@H]2C=C1C` (some centres undefined), the GI50 was 0.717 µM in assay [1]; 4.93 µM in assay [2]; 4.31 µM in assay [3]; 1.14 µM in assay [4]; 1.04 µM in assay [5]; 1.32 µM in assay [6]. In addition, the GI50 is 2.98 µM in assay [7] and 1.04 µM in assay [8]. Moreover, the concentration for total growth inhibition (TGI) is 2.85 µM in assay [1]; 9.82 µM in assay [2]; 8.53 µM in assay [3]; 5.49 µM in assay [4]; 3.55 µM in assay [5]; 5.12 µM in assay [6]. Also, the values for the total growth inhibition concentration (TGI) in assay [7] and in assay [8] were 7.59 µM and 4.9 µM, respectively.

Turning to `O=C1C(=O)c2ccccc2C(O)=C1CCCc1ccc(C2CCCC2)cc1`, the GI50 is 3.39 µM in assay [1]; 2.99 µM in assay [2]; 3.79 µM in assay [3]; 4.87 µM in assay [4]; 3.31 µM in assay [5]; 5.57 µM in assay [6]. The results for the GI50 in assay [7] and in assay [8] were 3.91 µM and 4.62 µM, respectively. Moreover, the concentration for total growth inhibition (TGI) in assay [1] was 12.9 µM; in assay [2] it was 8.34 µM; in assay [3], 14.5 µM; in assay [4] it was 17.1 µM; in assay [5] it was 10.4 µM; in assay [6] it was 25.9 µM. Besides, the TGI in assay [7] amounted to 28.2 µM; in assay [8] it was 30.3 µM.

On to `Nc1nc2c(nnn2C2OC(CO)C(O)C2O)c(=O)[nH]1` (centres undefined), for which the GI50 is 1.16 µM in assay [1]; 0.854 µM in assay [2]; 2.44 µM in assay [3]; 1.18 µM in assay [4]; 2.06 µM in assay [5]; 1.59 µM in assay [6]. Besides, the figures for the GI50 in assay [7] and in assay [8] were 7.29 µM and 0.676 µM, respectively. The concentration for total growth inhibition (TGI) in assay [1] was above 100 µM; in assay [2], above 27.3 µM; in assay [3], 9.24 µM; in assay [4] it was above 100 µM; in assay [5], above 100 µM; in assay [6], above 39.7 µM. The concentration for total growth inhibition (TGI) in assay [7] and in assay [8] was above 100 µM each time.

As to `COc1cc2oc(-c3ccc(O)cc3O)c(CC=C(C)C)c(=O)c2c(O)c1/C=C/C(C)C`, the total growth inhibition concentration (TGI) in assay [1] was found to be 4.44 µM; in assay [2] it was 4.6 µM; in assay [3] it was 3.06 µM; in assay [4] it was 6.03 µM; in assay [5], 4.64 µM; in assay [6], 10.4 µM. In addition, the TGI in assay [7] was 17.5 µM; in assay [8], 5.07 µM.

In the case of `C[C@]12CC[C@H]3[C@@H](CCC4=CC(=O)CC[C@@]43C)[C@@H]1CC[C@@H]2C(=O)COS(=O)(=O)c1ccc(Br)cc1`, the TGI is 3.12 µM in assay [1]; 8.74 µM in assay [2]; 47.9 µM in assay [3]; above 44.5 µM in assay [4]; 31.7 µM in assay [5]; above 60.7 µM in assay [6]. In addition, the figures for the TGI in assay [7] and in assay [8] were 31.9 µM and 3.01 µM, respectively.

For the compound `Clc1cc2c(nn1)Nc1ccccc1S2`, the GI50 in assay [1], in assay [2], in assay [3], in assay [4], in assay [5] and in assay [6] was above 100 µM in each case. Moreover, the GI50 in assay [7] and in assay [8] was above 100 µM in each case. The TGI in assay [1], in assay [2], in assay [3], in assay [4], in assay [5] and in assay [6] was above 100 µM in each case. Also, the TGI in assay [7] and in assay [8] was above 100 µM in each case.

Take `CC(=O)c1ccc(Nc2nc(Nc3ccc(F)cc3)nc(Nc3ccc(F)cc3)n2)cc1`: the GI50 was 4.24 µM in assay [1]; 9.95 µM in assay [2]; 7.07 µM in assay [3]; 13.4 µM in assay [4]; 5.7 µM in assay [5]; 3.07 µM in assay [6]. Besides, the GI50 is 14.3 µM in assay [7] and 3.77 µM in assay [8]. Moreover, the TGI in assay [1] is above 100 µM; in assay [2], above 100 µM; in assay [3], 35.8 µM; in assay [4] it was 88 µM; in assay [5], above 100 µM; in assay [6], 12.1 µM. In addition, the TGI in assay [7] and in assay [8] was above 100 µM each time.

`N#Cc1ccsc1NC(=O)COC(=O)c1cccc(S(=O)(=O)N2CCc3ccccc32)c1`: the GI50 in assay [1] was 22.9 µM; in assay [2], 39.2 µM; in assay [3] it was 21.1 µM; in assay [4], 24.1 µM; in assay [5], 21.3 µM; in assay [6] it was 15.1 µM. In addition, the GI50 in assay [7] is 28.9 µM; in assay [8], 14.5 µM. Moreover, the TGI in assay [1], in assay [2], in assay [3], in assay [4], in assay [5] and in assay [6] was above 100 µM throughout. The total growth inhibition concentration (TGI) in assay [7] and in assay [8] was above 100 µM in each case.
